Measurements taken from patent publication US10047345B2, “Culturing of mesenchymal stem cells with FGF4 and nicotinamide” (Gamida-Cell Ltd., priority 2012, dated 2018).
Entries after “also recorded” stand apart in the source; their conditions may differ.

Assays:
Type in all cases: cell-based, human
[1] = tested on: adipose-derived mesenchymal stem cells; test: Adipose-derived MSC proliferation and cell size with nicotinamide with or without FGF4; settings: Cedex cell counter; 5 mM NAM, 50 ng/ml FGF4
Protocol: Cell number was measured using Cedex Automated Cell Counter (Innovatis). The cells were diluted 1:2 in Trypan Blue (Sigma) and cell number was measured automatically under microscope.

mesenchymal stem cells = test: Large batch and serum batch MSC culture with nicotinamide (cell count)
Protocol: Cell number was measured using Cedex Automated Cell Counter (Innovatis). The cells were diluted 1:2 in Trypan Blue (Sigma) and cell number was measured automatically under microscope. Mesenchymal stem cells were isolated using plastic adherence method, as described above and cultured for several passages with fetal bovine serum, ±NAM. The cells were selected in the presence of NAM. At about 80% confluence, adherent cells were collected following trypsin treatment, counted, characterized and re-seeded at a concentration of 1×10^3 cells/cm^2.

[2] = tested on: bone marrow derived mesenchymal stem cells; test: Seeding, expansion, size and granularity of bone marrow derived MSCs with nicotinamide
Protocol: Bone marrow derived and adipose tissue derived mesenchymal cells were isolated based on their plastic adherence potential in expansion medium containing: High glucose DMEM and 10% Fetal Bovine Serum (FBS, Hyclone, Logan, Utah, USA) supplemented with 0.05 mg/ml Gentamicin (Sigma) and 2 mM L-glutamine (Biological Industries, Israel). Cells were allowed to adhere for 3-4 days and non-adherent cells were washed out with medium changes. The medium was further exchanged with fresh medium every 3-4 days. Once adherent cells reached approximately 80-90% confluency, they were detached with 0.25% trypsin-EDTA (Sigma), washed twice in DMEM and 10% Fetal Bovine Serum, with centrifugation, 400 g, 5 minutes, and replated at a 1:2 to 1:1000 dilution under the same culture conditions. Cell size was measured using Cedex Automated Cell Counter (Innovatis). The cells were diluted 1:2 in Trypan Blue (Sigma) and cell size was measured automatically under microscope. Following trypsin treatment, the cells were analyzed for granularicity by side scatter FACS. Cell number was measured using Cedex Automated Cell Counter (Innovatis). The cells were diluted 1:2 in Trypan Blue (Sigma) and cell number was measured automatically under microscope. […] At each passage and at each medium exchange, the cultures were supplemented with mesenchymal medium, nicotinamide and growth factors.

[3] = tested on: bone marrow mesenchymal stem cells; test: Growth factor secretion into conditioned medium (ELISA); settings: passage 4, 5 mM NAM, 50 ng/ml FGF4
Protocol: In some experiments, the adherent cells were cultured with or without nicotinamide and indicated factors, and 24 hours before passage 4, and the medium replaced with medium without fetal bovine serum or FGF4. Medium from MSC cultured as indicated, and depleted of fetal bovine serum and FGF4 24 hours before passage 4 was collected and assayed by ELISA for growth factors and immune-related factors secreted into the medium ([…] HGF, transforming growth factor beta TGF-β, keratinocyte growth factor KGF and interleukin 6 IL-6). ELISA was carried out using solid phase sandwich ELISA kits specific for human KGF (R&D systems, cat#DKG00), IL-6 (R&D systems, cat#D6050), TGF-β1 (R&D systems, cat#DB100B), HGF (R&D systems, cat#DHG00).

Compound: NC(=O)c1cccnc1 [nicotinamide, Nicotinamide]
- prevalence of smaller size cells in adipose derived MSC cultures [1]: increased prevalence of smaller size cells
- effect on cell count in large batches of MSCs (mesenchymal stem cells; large batch culture): evident on large batches
- dependence of the proliferative effect on serum batch (mesenchymal stem cells; one of two experiments): not dependent on a particular batch of serum
- seeding efficacy (selection) of bone marrow derived MSCs [2]: increased the seeding efficacy
- expansion rate of bone marrow derived MSCs at low nicotinamide concentration ([2]; 0.1 mM nicotinamide, figure not shown): insignificant effect
- cell size and granularity of MSCs versus culture without nicotinamide ([2]; identical conditions without nicotinamide as comparison): smaller and less granular
- doubling time of MSCs ([2]; nicotinamide added from initiation of culture and at each passage): decreased
- hepatocyte growth factor (HGF) in conditioned medium [3]: elevated levels
- interleukin 6 (IL-6) secreted into conditioned medium [3]: reduced levels; also recorded: reduction
- keratinocyte growth factor (KGF) in conditioned medium [3]: elevated levels
- transforming growth factor beta (TGF-β) in conditioned medium [3]: elevated levels
